This note sets out measurements from patent US20050245571A1, “Amine derivative” (priority 2001, published 2005).

In one test the target is T1, human SSTR3 (Homo sapiens, UniProt P32745).
T1 construct: expressed in transfected cells; host or cells: CHO (dhfr-) cells, strain SSTR3-15-19, plasmid pA1-11-SSTR3 (pAKKO-111 vector)
Put plainly: Binding inhibition of 125I-somatostatin-14, SSTR3 membrane fraction. The conditions noted are these: 125I-somatostatin-14 binding, CHO membrane fraction, 25° C. 60 minutes, Hill plots.

The target of the next test is T2, human SSTR5 (Homo sapiens, UniProt P35346).
T2 construct: expressed in transfected cells; host or cells: CHO (dhfr-) cells, strain SSTR5-32-4, plasmid pA1-11-SSTR5 (pAKKO-111 vector)
T2 sequence (P35346 whole entry): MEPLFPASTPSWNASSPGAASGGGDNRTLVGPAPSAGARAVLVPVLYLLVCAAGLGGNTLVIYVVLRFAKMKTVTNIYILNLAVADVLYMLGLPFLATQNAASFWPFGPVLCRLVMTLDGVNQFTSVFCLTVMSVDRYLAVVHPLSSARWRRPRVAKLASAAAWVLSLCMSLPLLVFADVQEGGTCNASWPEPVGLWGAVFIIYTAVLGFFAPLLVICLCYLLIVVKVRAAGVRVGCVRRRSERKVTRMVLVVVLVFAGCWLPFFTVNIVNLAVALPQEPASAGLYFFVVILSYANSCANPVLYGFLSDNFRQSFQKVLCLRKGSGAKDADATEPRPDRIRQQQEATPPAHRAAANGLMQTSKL
Put plainly: Binding inhibition of 125I-somatostatin-14, SSTR5 membrane fraction. The note with it: 125I-somatostatin-14 binding, CHO membrane fraction, 25° C. 60 minutes, Hill plots.

The target of the next test is T3, human SSTR2 (Homo sapiens, UniProt P30874).
T3 construct: expressed in transfected cells; host or cells: CHO (dhfr-) cells, strain SSTR2-HS5-9, plasmid pAC01 (pAKKO-111 vector)
T3 sequence (P30874 whole entry): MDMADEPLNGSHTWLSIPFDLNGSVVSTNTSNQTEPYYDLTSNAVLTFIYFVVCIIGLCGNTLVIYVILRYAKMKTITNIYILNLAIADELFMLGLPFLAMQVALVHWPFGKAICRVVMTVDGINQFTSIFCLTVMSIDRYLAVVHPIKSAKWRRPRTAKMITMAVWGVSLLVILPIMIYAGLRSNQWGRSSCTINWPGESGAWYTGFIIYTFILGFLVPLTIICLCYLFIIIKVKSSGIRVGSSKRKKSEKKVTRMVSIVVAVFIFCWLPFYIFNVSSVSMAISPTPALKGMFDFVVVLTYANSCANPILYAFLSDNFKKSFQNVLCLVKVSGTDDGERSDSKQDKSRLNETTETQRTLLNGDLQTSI
The experiment in a line: Binding inhibition of 125I-somatostatin-14, SSTR2 membrane fraction. The note with it: 125I-somatostatin-14 binding, CHO membrane fraction, 25° C. 60 minutes, Hill plots. The method, then: (4) Cloning of Human Somatostatin Receptor Protein Subtype 2 (SSTR2) DNA
pAKKO-111 mentioned under the above (2) was used as the expression vector in CHO (Chinese Hamster Ovary) cells. 5 μg of the plasmid having human SSTR2 cDNA fragment obtained under the above (4) was digested with the restriction enzyme Sal I and subjected to electrophoresis on 1% agarose gel to recover the 1.1 kb DNA fragment encoding human SSTR2. Next, 1 μg of the above-mentioned expression vector pAKKO-111 (5.5 kb) was digested with Sal I to prepare the cloning site for insertion of human SSTR2 DNA fragment. Said expression vector fragment and the 1.1 kb DNA fragment were ligated with T4 DNA ligase. The reaction mixture was introduced into E. coli JM109 by the calcium chloride method to obtain the expression plasmid pAC01 in which human SSTR2 DNA fragment was inserted in regular direction against the promoter from the transformants. This transformant is expressed as Escherichia coli JM109/pAC-01.
1×10^6 CHO (dhfr^−) cells were cultured for 24 hours in HAM F12 medium containing 10% bovine fetal serum on a laboratory dish of 8 cm in diameter. To the cells was transfected 10 μg of the human SSTR2 cDNA expression plasmid, pA-C01, obtained under the above (5) by the calcium phosphate method (Cell Phect Transfection Kit: Pharmacia). The medium was switched to DMEM medium containing 10% dialyzed bovine fetal serum 24 hours after the transfection to select the colony-forming cells (i.e. DHFR^+ cells) in this medium. Further, the selected cells were cloned from a single cell by the limiting dilution method and a cell strain which highly expresses human SSTR2, SSTR2-HS5-9, was selected.
The receptor binding inhibition rate (%) of the subject compound was calculated using each of the membrane fractions prepared in Experimental Examples 1 and 2.
The membrane fraction was diluted with a buffer solution for assay to adjust the concentration to 3 μg/ml. The diluate was placed in tubes each in quantity of 173 μl. To this were simultaneously added 2 μl of a solution of a subject compound in DMSO and 25 μl of a […] radioisotope-labeled somatostatin-14 (^125I-somatostatin-14: Amersham). For measurement of the maximum binding, a reaction mixture added with 2 μl of DMSO and 25 μl of a […] ^125I-somatostatin was prepared. For measurement of non-specific binding, a reaction mixture added with 2 μl of a 100 μM somatostatin solution in DMSO and 25 μl of a 200 pM ^125I-somatostatin solution was prepared at the same time. The mixtures were allowed to react at 25° C. for 60 minutes. Then, the reaction mixture was filtered by aspiration using a Whatman glass filter (GF-B) treated with polyethylenine. After filtration, the radioactivity of ^125I-somatostatin-14 remaining on the filter paper was measured by a γ-counter. The binding inhibition rate (%) of each subject compound was calculated by the following formula: (TB-SB)/(TB-NSB)×100 • SB: radioactivity when a compound was added • TB: maximum binding radioactivity • NSB: non-specific binding radioactivity
The binding inhibition rates were measured by changing the concentrations of the subject compound, and the 50% inhibiting concentration of the subject compound (IC50 value) was calculated by the Hill plots. The results are shown in [Table 1].

A further test deals with glucagon secretion. The experiment in a line: Glucagon Secretion Inhibitory Activity Test (Rat). Format: in vivo. The note with it: SD rats male fasted, 3 mg/kg oral, insulin 2 U/kg s.c. 120 minutes later, plasma glucagon 30 minutes after insulin. As for the experimental part: Glucagon Secretion Inhibitory Activity Test (Rat)
A 0.5% methylcellulose suspension containing the subject compound (3 mg/kg body weight) (compound administration group) or a 0.5% methylcellulose suspension (compound non-administration group) was orally administered to SD rats (male, 7 weeks of age) after fasting overnight, and 120 minutes later, insulin (2 U/kg body weight, Novo Nordisk) was subcutaneously administered. After 30 minutes from the insulin administration, the blood was,drawn from the vein of eyegrounds of the rats using capillary, and blood plasma was separated by centrifugation. The concentration of glucagon in the obtained blood plasma was measured by radioimmunoassay using a Daiichi glucagon kit (Daiichi Isotope). As a non-treated group, the concentration of glucagon in the blood plasma of rat of the compound non-administration group free of insulin administration was measured in the same manner as above. […]

T1 sequence (P32745 whole entry): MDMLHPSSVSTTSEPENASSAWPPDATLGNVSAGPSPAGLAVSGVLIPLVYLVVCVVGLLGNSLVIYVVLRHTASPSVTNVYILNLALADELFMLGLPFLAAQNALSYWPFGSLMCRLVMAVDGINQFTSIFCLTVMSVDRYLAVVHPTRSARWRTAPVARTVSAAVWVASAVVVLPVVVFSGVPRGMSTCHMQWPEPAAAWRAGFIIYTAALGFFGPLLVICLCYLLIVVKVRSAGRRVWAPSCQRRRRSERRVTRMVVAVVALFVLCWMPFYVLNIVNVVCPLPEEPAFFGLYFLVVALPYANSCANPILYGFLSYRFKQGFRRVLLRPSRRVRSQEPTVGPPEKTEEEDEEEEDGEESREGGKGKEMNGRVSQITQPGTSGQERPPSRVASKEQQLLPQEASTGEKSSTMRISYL

For orientation: IC50 means the midpoint of a concentration-inhibition curve. A lower IC50 goes with inhibition by little substance. With `C[C@@H](c1c[nH]c2ccccc12)[C@@H](NC(=O)N1CCN(C(=O)c2ccccc2)CC1)C(=O)N1C[C@@H](CN(C)C)Cc2cc(Cl)ccc21` [Example 157, 4-benzoyl-N-[(1R,2S)-1-[[(3R)-6-chloro-3-[(dimethylamino)methyl]-3,4-dihydro-1(2H)-quinolinyl]carbonyl]-2-(1H-indol-3-yl)propyl]-1-piperazinecarboxamide], the IC50 on human SSTR3 came out at 1 nM; on human SSTR5 it was 5 nM; at human SSTR2 it was 0.05 nM.

For `C[C@@H](c1c[nH]c2ccccc12)[C@@H](NC(=O)N1CCC(Oc2ccc(F)cc2)CC1)C(=O)N1C[C@@H](CN(C)C)Cc2cc(Cl)ccc21` [Example 153, N-[(1R,2S)-1-[[(3R)-6-chloro-3-[(dimethylamino)methyl]-3,4-dihydro-1(2H)-quinolinyl]carbonyl]-2-(1H-indol-3-yl)propyl]-4-(4-fluorophenoxy)-1-piperidinecarboxamide], the IC50 at human SSTR3 was found to be 10 nM; at human SSTR5, 40 nM; on human SSTR2, 0.1 nM.

With `CC(c1c[nH]c2ccccc12)C(NC(=O)N1CCC(Oc2ccc(O)cc2)CC1)C(=O)N1C[C@@H](CN(C)C)Cc2cc(Cl)ccc21` (single isomer, unassigned; (-)) [Example 141], the IC50 on human SSTR3 is 3 nM; on human SSTR5 it was 10 nM; at human SSTR2, 0.05 nM.

Consider `C[C@@H](c1c[nH]c2ccccc12)[C@@H](NC(=O)N1CCC(Oc2ccccc2)CC1)C(=O)N1C[C@@H](CN(C)C)Cc2cc(Cl)ccc21` [Example 42, N-[(1R,2S)-1-[((3R)-6-chloro-3-[(dimethylamino)methyl]-3,4-dihydro-1(2H)-quinolinyl)carbonyl]-2-(1H-indol-3-yl)propyl]-4-phenoxy-1-piperidinecarboxamide], for which, in the test with glucagon secretion, the “glucagon secretion (% of control)” value is given as 3.0 % of control. For the same compound, the IC50 came out at 6 nM on human SSTR3, 40 nM on human SSTR5 and 0.1 nM at human SSTR2.

Consider `C[C@@H](c1c[nH]c2ccccc12)[C@@H](NC(=O)C1CCN(C(=O)c2cc3ccccc3n2C)CC1)C(=O)N1C[C@@H](CN(C)C)Cc2cc(Cl)ccc21` [Example 6, N-[(1R,2S)-1-[((3R)-6-chloro-3-[(dimethylamino)methyl]-3,4-dihydro-1(2H)-quinolinyl)carbonyl]-2-(1H-indol-3-yl)propyl]-1-[(1-methyl-1H-indol-2-yl)carbonyl]-4-piperidinecarboxamide], for which the “glucagon secretion (% of control)” value with glucagon secretion is recorded as 15.6 % of control. The IC50 at human SSTR3 was found to be 30 nM; at human SSTR5 it was 60 nM; on human SSTR2, 0.2 nM.
